These results are taken from patent US6337345B1, “Insecticidal or miticidal combinations containing chlorfenapyr” (American Cyanamid Co., priority 1996, dated 2002).

What all share (assay type): in vivo
The subject of series [1] is female imagines of Kanzawa spider mite (Tetranychus kanzawai kishida) which had acquired a strong resistance to chlorfenapyr. Description: Miticidal effect on female imagines of chlorfenapyr-resistant Kanzawa spider mite, leaf disk spray test. The protocol:
In this experiment, the miticidal effect against female imagines (adults) of Kanzawa spider mite (Tetranychus kanzawai kishida) which are registrant to chlorfenapyr is evaluated.
Round leaf disks (2 cm diameter) are cut out of a first leaf of kidney bean by a leaf punch and 4 sheets of the disks are placed on wet sanitary cotton in a plastic cup (8 cm diameter). On each leaf disk, 4 female imagines of Kanzawa spider mite (Tetranychus kanzawai kishida) which had acquired a strong resistance to chlorfenapyr are inoculated.
After the inoculation, chlorfenapyr and a compound(s) selected from group A are dispersed in water containing 200 ppm of an extender (Sorpol 3005X) and diluted such that a predetermined concentration of active ingredient is obtained. Each plastic cup is sprayed with 3.5 ml of a test solution with a rotary spray tower (Mizuho Scientific Co., Ltd.) and stored in a constant temperature chamber held at 25±1° C. (32 individuals are tested per concentration, 4−5 concentrations are evaluated per formulation, and 2 performances were repeated). Two days after treatment, the number of living and dead female imagines of Kanzawa spider mite (Tetranychus kanzawai kishida) which had acquired a strong resistance to chlorfenapyr is counted and the mortality (%) is calculated according the formula shown hereinbelow.
A co-toxicity coefficient is calculated by applying Sun and Johnson's formula (J. Econ. Ent., Vol 53, p. 887, […]) which is generally used to determine the degree of synergistic activity.
Co-toxicity coefficient=T^c [formula]
For T^c values greater than 100, the greater value indicates a stronger synergistic action. For a T^c value equal to 100, an additive action is indicated. For T^c values less than 100, the lesser value indicates a greater antagonistic action. A more detailed description of the calculation of the co-toxicity coefficient using the above-referenced Sun and Johnson formula follows.
The LC50 values of Test Compound A alone and Test Compound B alone and the LC50 value of the (A+B) mixture M is determined.
Actual toxicity index of mixture M=M^ti
Each LC50 value of effective ingredient A and effective ingredient B and the LC50 value of the mixture of A+B are used to determine the actual toxicity index as shown in the equation below. [formula]
Theoretical toxicity index of mixture M=Th.M^ti
Th.M^ti=(Toxicity index of A×%A in M+Toxicity index of B×%B in M)
Toxicity index of B=B^ti [formula]

Series [2] deals with susceptible strain of Kanzawa spider mite. Put plainly: LC50 against susceptible strain of Kanzawa spider mite. The text has this:
By comparison, the LC50 value for chlorfenapyr against a susceptible strain of Kanzawa spider mite is about 5 ppm.

In series [3] the test system is female imagines of Kanzawa spider mite (Tetranychus kanzawai kishida) which had acquired a strong resistance to chlorfenapyr. Put plainly: Miticidal effect on female imagines of chlorfenapyr-resistant Kanzawa spider mite, leaf disk spray test. The settings on record: resistant strain obtained by long artificial selection in the laboratory, compared with susceptible strain.

Setting [4] is: single test compound, chlorfenapyr-resistant strain.
Setting [5] is: single test compound, chlorfenapyr-resistant strain, female imago, mortality two days after treatment, probit analysis.

In general, LC50 refers to the concentration lethal to half of the exposed cells or organisms. On to `OC(c1ccc(Cl)cc1)(c1ccc(Cl)cc1)C(Cl)(Cl)Cl` [Kelthane (Dicofol)], for which the “miticidal effect (in words)” value in series [1] (setting [4]) is “high miticidal effect”. The LC50 in series [1] (setting [5]) turned out to be 32 ppm.

Take `CCOCCc1ccc(OCCNc2ncnc(CC)c2Cl)c(C)c1C` [Pyrimidifen, 5-chloro-N-{2-[2,3-dimethyl-4-(2-ethoxyethyl)phenoxy]ethyl}-6-ethyl-4-pyrimidinamine]: the LC50 in series [1] (in vivo) is 10 ppm. In series [1] (setting [4]), the “miticidal effect (in words)” value was “high miticidal effect”.

As for `CCC(C)c1cc([N+](=O)[O-])cc([N+](=O)[O-])c1OC(=O)C=C(C)C` (stereo not drawn) [Binapacryl, 2,4-dinitro-6-sec-butylphenyldimethyl-acrylate], the LC50 in series [1] (setting [5]) is on record as 180 ppm.

For the compound `CC(C)OC(=O)C(O)(c1ccc(Br)cc1)c1ccc(Br)cc1` [Phenisobromalate, isopropyl 4,4′-dibromobenzilate], the “miticidal effect (in words)” value in series [1] (setting [4]) is on record as “low effects”. Further, the LC50 in series [1] (setting [5]) is on record as 280 ppm.

For `CCOCn1c(-c2ccc(Cl)cc2)c(C#N)c(Br)c1C(F)(F)F` [Chlorfenapyr, 4-bromo-2-(4-chloropheny)-1-(ethoxymethyl)-5-(trifuloromethyl)pyrrole-3-carbonitrile], the LC50 in series [1] (setting [5]) was 1500 ppm; in series [2] it was “about 5 ppm”. Besides, the “resistance to chlorfenapyr of the resistant strain” value in series [3] was about 300 fold.

As for `C/C1=C\C[C@@H]2C[C@@H](C[C@]3(CC[C@H](C)[C@@H](C)O3)O2)OC(=O)[C@@H]2CC[C@@H](O)[C@H]3OC/C(=C\C=C\[C@H](C)C1)[C@]32O` (mixture of isomers) [Milbemectin], in series [1] (setting [5]), the LC50 is given as 0.28 ppm.

Consider `CN(C)C(=O)SCCCCOc1ccccc1` [Fenothiocarb, S-4-phenoxybutyl-dimethylthiocarbamate], for which, in series [1] (setting [5]), the LC50 came to 1000 ppm.

Regarding “dinitromethylheptylphenyl crotonate [DPC]”, the “miticidal effect (in words)” value in series [1] (setting [4]) is on record as “low effects”. For the same compound, in series [1] (setting [5]), the LC50 turned out to be 630 ppm.

For the compound `Cc1ccc(N=CN(C)C=Nc2ccc(C)cc2C)c(C)c1` [Amitraz, 3-methyl-1,5-bis(2,4-xylyl)-1,3,5-triazapenta-1,4-diene], in series [1] (setting [4]), the “miticidal effect (in words)” value is reported as “low effects”. Further, in series [1] (setting [5]), the LC50 was 200 ppm.

For `O=S(=O)(c1ccc(Cl)cc1)c1cc(Cl)c(Cl)cc1Cl` [Tetradifon, 2,4,5,4′-tetrachlorodiphenyisulfone], in series [1] (setting [4]), the “miticidal effect (in words)” value is reported as “low miticidal effect”. The LC50 in series [1] (setting [5]) was 4900 ppm.
